From US12084472B2 (Ardelyx, Inc., priority 2015, dated 2024)

biological target: T1, human TGR5 (Homo sapiens, UniProt Q8TDU6); experiment: Cell-based TGR5 assay (cAMP generation, HTRF); settings: HEK293 cells stably transfected with human TGR5; cAMP by HTRF; 30 minutes at 37° C.; read-out: pEC50 Human TGR5 (converted)
T1 construct: expressed in transfected cells; host or cells: HEK293
T1 sequence (Q8TDU6 1-330): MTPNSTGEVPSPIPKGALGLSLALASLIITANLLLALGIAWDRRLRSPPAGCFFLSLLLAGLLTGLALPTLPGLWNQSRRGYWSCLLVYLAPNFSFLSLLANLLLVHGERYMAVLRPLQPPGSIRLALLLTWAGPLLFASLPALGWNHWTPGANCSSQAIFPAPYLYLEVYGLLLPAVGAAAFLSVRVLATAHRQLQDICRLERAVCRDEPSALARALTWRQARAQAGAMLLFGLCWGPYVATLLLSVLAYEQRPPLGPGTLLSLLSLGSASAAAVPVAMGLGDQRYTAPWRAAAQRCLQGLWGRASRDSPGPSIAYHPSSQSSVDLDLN
Outline: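 Read-out was HTRF detection of cAMP, converted to concentration via a standard curve and fitted (3-parameter logistic) for pEC50 and maximal response. Agonist stimulation used HEK293 cells stably transfected with human TGR5, incubated 30 min at 37° C in IBMX-containing buffer at 0.05 nM to 10 μM compound.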

Row | EC50 [nM] | Structure (SMILES)
1 | 126 to 1000 | O=C([C@@H](O)[C@@H](O)[C@H](O)[C@@H](O)CO)N(CCCSc1ccc(Cl)c(CNC2(c3cnccc3-c3ccccc3OC3CC3)CC2)c1)C1CCOCC1 [Compound I-528, (2S,3S,4R,5S)-N-[3-({4-chloro-3-[({1-[4-(2-cyclopropoxyphenyl)pyridin-3-yl]cyclopropyl}amino)methyl]phenyl}sulfanyl)propyl]-2,3,4,5,6-pentahydroxy-N-(oxan-4-yl)hexanamide]
2 | < 100 | CSc1ncc(C)c(CNC2(c3cnccc3-c3ccccc3OC3CC3)CC2)n1 [Compound I-496, 1-[4-(2-Cyclopropoxyphenyl)pyridin-3-yl]-N-[[5-methyl-2-(methylsulfanyl)pyrimidin-4-yl]methyl]cyclopropan-1-amine]
3 | < 100 | O=C(CCCCc1ccc(Cl)c(CNC2(c3cnccc3-c3ccccc3OC3CC3)CC2)c1)NC[C@H](O)[C@@H](O)[C@H](O)[C@H](O)CO (stereo in doubt) [Compound I-233, 5-{4-chloro-3-[({1-[4-(2-cyclopropoxyphenyl)pyridin-3-yl]cyclopropyl}amino)methyl]phenyl}-N-[(2S,3R,4R,5R)-2,3,4,5,6-pentahydroxyhexyl]pentanamide]
4 | 126 to 1000 | Clc1ccc(COC2(c3cnccc3-c3ccccc3OC3CC3)CC2)c(Cl)c1 [Compound I-48, 4-(2-cyclopropoxyphenyl)-3-{1-[(2,4-dichlorophenyl)methoxy]cyclopropyl}pyridine]
5 | 126 to 1000 | O=C([C@@H](O)[C@@H](O)[C@H](O)[C@@H](O)CO)N(CCCCSc1ccc(Cl)c(CNC2(c3cnccc3-c3ccccc3OC3CC3)CC2)c1)CCN1CCS(=O)(=O)CC1 [Compound I-557, (2S,3S,4R,5S)-N-[4-({4-chloro-3-[({1-[4-(2-cyclopropoxyphenyl)pyridin-3-yl]cyclopropyl}amino)methyl]phenyl}sulfanyl)butyl]-N-[2-(1,1-dioxo-1λ^6,4-thiomorpholin-4-yl)ethyl]-2,3,4,5,6-pentahydroxyhexanamide]
6 | < 100 | O=C(CCCCc1cc(Cl)c(COC2(c3cnccc3-c3ccccc3OC3CC3)CC2)cc1Cl)N[C@@H]1[C@@H](O)[C@H](O)[C@@H](CO)O[C@H]1O [Compound I-154, 5-[2,5-dichloro-4-({1-[4-(2-cyclopropoxyphenyl)pyridin-3-yl]cyclopropoxy}methyl)phenyl]-N-[(2R,3R,4R,5S,6R)-2,4,5-trihydroxy-6-(hydroxymethyl)oxan-3-yl]pentanamide]
7 | < 100 | CN(CCOCCNC(=O)NC[C@H](O)[C@@H](O)[C@H](O)[C@H](O)CO)S(=O)(=O)c1ccc(Cl)c(COC2(c3cnccc3-c3ccccc3OC3CC3)CC2)c1 (stereo in doubt) [Compound I-404, 1-(2-{2-[N-methyl4-chloro-3-({1-[4-(2-cyclopropoxyphenyl)pyridin-3-yl]cyclopropoxy}methyl)benzenesulfonamido]ethoxy}ethyl)-3-[(2S,3R,4R,5R)-2,3,4,5,6-pentahydroxyhexyl]urea]
8 | 1260 to 10000 | CC(CCCC(=O)NCCN1CCN(C(=O)NC[C@H](O)[C@@H](O)[C@H](O)[C@H](O)CO)CC1)c1ccc(Cl)c(CN(C(=O)NC[C@H](O)[C@@H](O)[C@H](O)[C@H](O)CO)C2(c3cnccc3-c3ccccc3OC3CC3)CC2)c1 (stereo partly drawn) [Compound I-372, 4-[2-(5-{4-chloro-3-[(1-{l-[4-(2-cyclopropoxyphenyl)pyridin-3-yl]cyclopropyl}{[(2S,3R,4R,5R)-2,3,4,5,6-pentahydroxyhexyl]carbamoyl}amino)methyl]phenyl}hexanamido)ethyl]-N-[(2S,3R,4R,5R)-2,3,4,5,6-pentahydroxyhexyl]piperazine-1-carboxamide]
9 | 126 to 1000 | O=C([C@@H](O)[C@@H](O)[C@H](O)[C@@H](O)CO)N(CCCSc1ccc(Cl)c(CNC2(c3cnccc3-c3ccccc3OC3CC3)CC2)c1)CCOCCO [Compound I-526, (2S,3S,4R,5S)-N-[3-({4-chloro-3-[({1-[4-(2-cyclopropoxyphenyl)pyridin-3-yl]cyclopropyl}amino)methyl]phenyl}sulfanyl)propyl]-2,3,4,5,6-pentahydroxy-N-[2-(2-hydroxyethoxy)ethyl]hexanamide]
10 | 126 to 1000 | CCOC(=O)NCCN(CCCSc1ccc(Cl)c(COC2(c3cnccc3-c3ccccc3OC3CC3)CC2)c1)C(=O)[C@@H](O)[C@@H](O)[C@H](O)[C@@H](O)CO [Compound I-597, ethyl N-{2-[(2S,3S,4R,5S)-N-(3-{[4-chloro-3-({1-[4-(2-cyclopropoxyphenyl)pyridin-3-yl]cyclopropoxy}methyl)phenyl]sulfanyl}propyl)-2,3,4,5,6-pentahydroxyhexanamido]ethyl}carbamate]
11 | < 100 | O=C(NCCOCCSc1ccc(Cl)c(COC2(c3cnccc3-c3ccccc3OC3COC3)CC2)c1)NC[C@H](O)[C@@H](O)[C@H](O)[C@H](O)CO [Compound I-493, 1-(2-(2-(4-Chloro-3-((1-(4-(2-(oxetan-3-yloxy)phenyl)pyridin-3-yl)cyclopropoxy)methyl)phenylthio)ethoxy)ethyl)-3-((2S,3R,4R,5R)-2,3,4,5,6-pentahydroxyhexyl)urea]
12 | < 100 | CN(CCCCNC(=O)[C@@H](O)[C@@H](O)[C@H](O)[C@@H](O)CO)S(=O)(=O)c1ccc(Cl)c(COC2(c3cnccc3-c3ccccc3OC3CC3)CC2)c1 [Compound I-458, (2S,3S,4R,5S)-2,3,4,5,6-pentahydroxy-N-{4-[N-methyl4-chloro-3-({1-[4-(2-cyclopropoxyphenyl)pyridin-3-yl]cyclopropoxy}methyl)benzenesulfonamido]butyl}hexanamide]
13 | 126 to 1000 | CN(CCCCNC(=O)NCCCCN(C)S(=O)(=O)c1ccc(Cl)c(COC2(c3cnccc3-c3ccccc3OC3CC3)CC2)c1)S(=O)(=O)c1ccc(Cl)c(COC2(c3cnccc3-c3ccccc3OC3CC3)CC2)c1 [Compound I-767, N,N′-((carbonylbis(azanediyl))bis(butane-4,1-diyl))bis(4-chloro-3-((1-(4-(2-cyclopropoxyphenyl)pyridin-3-yl)cyclopropoxy)methyl)-N-methylbenzenesulfonamide)]
14 | < 100 | CN(CCCCNC(=O)NC[C@H](O)[C@@H](O)[C@H](O)[C@H](O)CO)S(=O)(=O)c1cc(COC2(c3cnccc3-c3ccccc3OC3CC3)CC2)c(Cl)cc1F [Compound I-466, 1-{4-[N-methyl4-chloro-5-({1-[4-(2-cyclopropoxyphenyl)pyridin-3-yl]cyclopropoxy}methyl)-2-fluorobenzenesulfonamido]butyl}-3-[(2S,3R,4R,5R)-2,3,4,5,6-pentahydroxyhexyl]urea]
15 | < 100 | O=C(CCCCc1cc(Cl)c(COC2(c3cnccc3-c3ccccc3OC3CC3)CC2)cc1Cl)NCCN1CCN(CC(=O)NC[C@H](O)[C@@H](O)[C@H](O)[C@H](O)CO)CC1 [Compound I-99, 5-[2,5-dichloro-4-({1-[4-(2-cyclopropoxyphenyl)pyridin-3-yl]cyclopropoxy}methyl)phenyl]-N-{2-[4-({[(2S,3R,4R,5R)-2,3,4,5,6-pentahydroxyhexyl]carbamoyl}methyl)piperazin-1-yl]ethyl}pentanamide]
16 | < 100 | CCCN(C[C@H](O)[C@@H](O)[C@H](O)[C@H](O)CO)C(=O)CCCC(C)c1ccc(C)c(CNC2(c3cnccc3-c3ccccc3OC3CC3)CC2)c1 (stereo partly drawn) [Compound I-354, 5-{3-[({1-[4-(2-cyclopropoxyphenyl)pyridin-3-yl]cyclopropyl}amino)methyl]-4-methylphenyl}-N-[(2S,3R,4R,5R)-2,3,4,5,6-pentahydroxyhexyl]-N-propylhexanamide]
17 | < 100 | COCCN(C[C@H](O)[C@@H](O)[C@H](O)[C@H](O)CO)C(=O)CCCC(C)c1ccc(C)c(CNC2(c3cnccc3-c3ccccc3OC3CC3)CC2)c1 (stereo partly drawn) [Compound I-357, 5-{3-[({1-[4-(2-cyclopropoxyphenyl)pyridin-3-yl]cyclopropyl}amino)methyl]-4-methylphenyl}-N-(2-methoxyethyl)-N-[(2S,3R,4R,5R)-2,3,4,5,6-pentahydroxyhexyl]hexanamide]
18 | < 100 | O=C(NCCCCCc1cc(Cl)c(COC2(c3cnccc3-c3ccccc3OC3CC3)CC2)cc1Cl)NC[C@H](O)[C@@H](O)[C@H](O)[C@H](O)CO (stereo in doubt) [Compound I-225, 1-{5-[2,5-dichloro-4-({1-[4-(2-cyclopropoxyphenyl)pyridin-3-yl]cyclopropoxy}methyl)phenyl]pentyl}-3-[(2S,3R,4R,5R)-2,3,4,5,6-pentahydroxyhexyl]urea]
19 | < 100 | CC(C)(NCc1cc(Cl)ccc1Cl)c1cnccc1-c1ccccc1OC1CC1 [Compound I-723, 2-(4-(2-Cyclopropoxyphenyl)pyridin-3-yl)-N-(2,5-dichlorobenzyl)propan-2-amine]
20 | 1260 to 10000 | CN(C[C@H](O)[C@@H](O)[C@H](O)[C@H](O)CO)C(=O)CCN(CCC(=O)N(C)C[C@H](O)[C@@H](O)[C@H](O)[C@H](O)CO)C(=O)CCCCc1cc(Cl)c(CNC2(c3cnccc3-c3ccccc3OC3CC3)CC2)cc1Cl [Compound I-171, 5-{2,5-dichloro-4-[({1-[4-(2-cyclopropoxyphenyl)pyridin-3-yl]cyclopropyl}amino)methyl]phenyl}-N,N-bis(2-{methyl[(2S,3R,4R,5R)-2,3,4,5,6-pentahydroxyhexyl]carbamoyl}ethyl) pentanamide]
21 | < 100 | O=C(CCCCc1cc(Cl)c(COC2(c3cnccc3-c3ccccc3OC3CC3)CC2)cc1Cl)N(C[C@H](O)[C@@H](O)[C@H](O)[C@H](O)CO)C1CCOCC1 [Compound I-131, 5-[2,5-dichloro-4-({1-[4-(2-cyclopropoxyphenyl)pyridin-3-yl]cyclopropoxy}methyl)phenyl]-N-(oxan-4-yl)-N-[(2S,3R,4R,5R)-2,3,4,5,6-pentahydroxyhexyl]pentanamide]
